Data set [1] deals with human red blood cells (hRBCs). The experiment in a line: Hemolysis assay. The format is cell-based. The note with it: concentration range 0.5–256 μg/mL. The protocol:
Then the stock RBCs solution was added up to a final volume of 100 μL with a 4% concentration of erythrocytes (v/v). The control wells for 0 and 100% hemolysis were also prepared. They consisted of RBCs suspended in PBS and 1% of Triton-X 100, respectively.

For data set [2], the system named is S. aureus ATCC 33591 (MRSA). In kind it is cell-based, Staphylococcus aureus. The note with it: S. aureus ATCC 33591 (MRSA); Mueller-Hinton Broth, 18 h. The method, boiled down:
(§1)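 Following CLSI guidance, compounds (0.5–256 µg/mL) are incubated with bacteria (0.5 × 10^5 CFU/mL, Mueller–Hinton broth) for 18 h at 37 °C. Each MIC reflects complete visible growth inhibition, measured in triplicate with growth and sterility controls.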

Data set [3] deals with K. pneumoniae ATCC 700603. The format is cell-based, Klebsiella pneumoniae. The note with it: K. pneumoniae ATCC 700603; Mueller-Hinton Broth, 18 h. The method, boiled down: as §1
Another data set deals with E. faecium ATCC 700221. The format is cell-based, Enterococcus faecium. The following applies: E. faecium ATCC 700221; Mueller-Hinton Broth, 18 h. The method, boiled down:
as §1

Data set [4] concerns human keratinocytes (HaCaT). In kind it is cell-based. The following applies: HaCaT, MTT, 24 h.

Values after ≈ are worked out from the molar mass of the structure shown. Peptide text beside a SMILES is read from it. * marks the point of attachment. Bz = O=C(c1ccccc1)*

Experimental findings from paper PMC7036753, “Lipidated Analogs of the LL-37-Derived Peptide Fragment KR12—Structural Analysis, Surface-Active Properties and Antimicrobial Activity” (International Journal of Molecular Sciences, 2020) are described below.

In the case of `CC[C@H](C)[C@H](NC(=O)[C@H](CCCNC(=N)N)NC(=O)[C@H](CCC(N)=O)NC(=O)[C@@H](NC(=O)[C@@H](NC(=O)[C@H](CCCNC(=N)N)NC(=O)[C@H](CCCCN)NC(=O)c1ccccc1)[C@@H](C)CC)C(C)C)C(=O)N[C@@H](CCCCN)C(=O)N[C@@H](CC(=O)O)C(=O)N[C@@H](Cc1ccccc1)C(=O)N[C@@H](CC(C)C)C(=O)N[C@@H](CCCNC(=N)N)C(N)=O` [VIII, Benzoic acid-KR12-NH2] (Bz-KRIVQRIKDFLR-NH2), the “hemolysis of hRBCs” value in data set [1] is reported as “did not cause hemolysis”. Besides, the MIC (usually the smallest concentration in the dilution series that meets the test's criterion for growth inhibition) in data set [2] worked out at 32 µg/mL (≈ 19.1 µM); in data set [3], 16 µg/mL (≈ 9.55 µM); in the data set with E. faecium ATCC 700221 it was 1 µg/mL (≈ 0.597 µM). For the same compound, in data set [4], the IC50 – broadly, the midpoint of a concentration-inhibition curve – came to 40.50 µg/mL (≈ 24.2 µM).
